Measurements published in patent publication US20170283440A1, “CARM1 INHIBITORS AND USES THEREOF” (Epizyme, Inc., priority 2014, published 2017).

Tests used:
[1] = target: T1, Human CARM1 (PRMT4) (Homo sapiens, UniProt Q86X55); experiment: CARM1 enzyme assay on peptide substrate (3H-SAM Flashplate); format: biochemical; conditions: CARM1 0.25 nM, 3H-SAM 30 nM, peptide 250 nM; read-out: Biochem IC50
T1 construct: Flag-CARM1-His was eluted with 200 ug/ml FLAG peptide in buffer A; made in house; host or cells: HEK 293F cells infected with recombinant baculovirus (pFastBacMam)
T1 sequence (Q86X55 other isoform, or with tags, fused parts or gaps): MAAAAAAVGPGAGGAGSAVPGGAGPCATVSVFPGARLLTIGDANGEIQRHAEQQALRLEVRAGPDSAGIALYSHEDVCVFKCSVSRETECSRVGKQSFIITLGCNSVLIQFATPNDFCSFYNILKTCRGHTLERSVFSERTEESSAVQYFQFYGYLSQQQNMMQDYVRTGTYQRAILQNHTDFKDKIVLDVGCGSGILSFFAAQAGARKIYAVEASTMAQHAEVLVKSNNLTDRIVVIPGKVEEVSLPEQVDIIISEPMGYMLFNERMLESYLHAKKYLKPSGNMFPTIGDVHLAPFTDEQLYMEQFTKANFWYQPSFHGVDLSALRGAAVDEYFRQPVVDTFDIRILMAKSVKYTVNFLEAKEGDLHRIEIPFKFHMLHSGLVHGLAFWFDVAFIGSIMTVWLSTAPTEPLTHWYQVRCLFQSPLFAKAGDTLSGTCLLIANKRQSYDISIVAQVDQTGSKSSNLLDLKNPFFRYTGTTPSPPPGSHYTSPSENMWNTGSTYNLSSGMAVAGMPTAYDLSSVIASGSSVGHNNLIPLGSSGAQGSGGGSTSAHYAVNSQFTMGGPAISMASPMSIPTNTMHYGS
Excerpt: S-adenosylmethionine (SAM), S-adenosylhomocysteine (SAH), bicine, Tween20, dimethylsulfoxide (DMSO), bovine skin gelatin (BSG), sodium butyrate and Tris(2-carboxyethyl)phosphine hydrochloride solution (TCEP) were purchased from Sigma-Aldrich at the highest level of purity possible. ^3H-SAM was purchase from American Radiolabeled Chemicals with a specific activity of 80 Ci/mmol. 384-well streptavidin Flashplates were purchased from PerkinElmer.
Peptide representative of human histone H3 residues 16-30 was synthesized with an N-terminal linker-affinity tag motif and a C-terminal amide cap by 21st Century Biochemicals. The peptide was purified by high-performance liquid chromatography (HPLC) to greater than 95% purity and confirmed by liquid chromatography mass spectrometry (LC-MS). The sequence was Biot-Ahx-[…]-amide and contained a monomethylated arginine at position 26 (SEQ ID NO.:1).
Human CARM1 (PRMT4) (NM_199141.1) transcript clone was amplified from an HEK 293 cDNA library, incorporating a flanking 5′ sequence encoding a FLAG tag ([…]) (SEQ ID NO.:2) fused directly to Ala 2 of CARM1 and 3′ sequence encoding a hexa His sequence ([…]) (SEQ ID NO.:3) fused directly to Ser 608. The gene sequence encoding isoform1 containing a deletion of amino acids 539-561 was amplified subsequently and subcloned into pFastBacMam (Viva Biotech).
Recombinant baculovirus were generated according to Bac-to-Bac kit instructions (Life Technologies). Protein over-expression was accomplished by infecting exponentially growing HEK 293F cell culture at 1.3×10^6 cell/ml with virus (MOI=10) in the presence of 8 mM sodium butyrate. Infections were carried out at 37° C. for 48 hours, harvested by centrifugation, and stored at −80° C. for purification.
Column was washed with 500 mM NaCl in buffer A and Flag-CARM1-His was eluted with 200 ug/ml FLAG peptide in buffer A. Pooled fractions were dialyzed in 20 mM Tris, 150 mM NaCl, 5% glycerol and 1 mM DTT, pH 7.8. The purity of recovered protein was 94.
The assays were all performed in a buffer consisting of 20 mM Bicine (pH=7.6), 1 mM TCEP, 0.005% BSG, and 0.002% Tween 20, prepared on the day of use. Compounds in 100% DMSO (1 ul) were spotted into a polypropylene 384-well V-bottom plates (Greiner) using a Platemate Plus outfitted with a 384-channel head (Thermo Scientific). DMSO (1 ul) was added to Columns 11, 12, 23, 24, rows A-H for the maximum signal control and 1 ul of SAH, a known product and inhibitor of CARM1, was added to columns 11, 12, 23, 24, rows I—P for the minimum signal control. A cocktail (40 ul) containing the CARM1 enzyme was added by Multidrop Combi (Thermo-Fisher). The compounds were allowed to incubate with CARM1 for 30 min at room temperature, then a cocktail (10 ul) containing ^3H-SAM and peptide was added to initiate the reaction (final volume=51 ul). The final concentrations of the components were as follows: CARM1 was 0.25 nM, ^3H-SAM was 30 nM, peptide was 250 nM, SAH in the minimum signal control wells was 1 mM, and the DMSO concentration was 2%. The assays were stopped by the addition of non-radiolabeled SAM (10 ul) to a final concentration of 300 uM, which dilutes the ^3H-SAM to a level where its incorporation into the peptide substrate is no longer detectable. 50 ul of the reaction in the 384-well polypropylene plate was then transferred to a 384-well Flashplate and the biotinylated peptides were allowed to bind to the streptavidin surface for at least 1 hour before being washed once with 0.1% Tween20 in a Biotek ELx405 plate washer. The plates were then read in a PerkinElmer TopCount plate reader to measure the quantity of ^3H-labeled peptide bound to the Flashplate surface, measured as disintegrations per minute (dpm) or alternatively, referred to as counts per minute (cpm).
where dpm=disintegrations per minute, cmpd=signal in assay well, and min and max are the respective minimum and maximum signal controls. […]

[2] = test system: asymmetric di-methyl PABP1 in RKO cells; experiment: RKO methylation assay (In Cell Western for asymmetric di-methyl PABP1); format: cell-based; conditions: Homo sapiens, 48 hours incubation, read-out: Cellular IC50
Procedure, shortened: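 RKO cells treated 48 h at 37 °C, then fixed, methanol-permeabilized and probed for asymmetric di-methyl PABP1 (16 h, 4 °C) with DRAQ5 counterstain; 800/700 nm intensity ratio read.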

SMILES	IC50 [1]	IC50 [2]
CNCC(O)COc1cc(NC)cc(-c2cc(NC3CCOCC3)c3cnn(C(C)C)c3n2)c1 (stereo not shown) [Example 13-4]	< 100 nM	10000 to 20000 nM
NCC(O)COc1cccc(-c2nc(NCc3ccccn3)c3cnn(C4CC4)c3n2)c1 (stereo not shown) [Example 13-5]	100 to 1000 nM	> 20000 nM
CNCC(O)COc1cccc(-c2cc(N(C)[C@@H]3CCOC3)n3ncc(C(C)C)c3n2)c1 (stereo partly shown) [Example 13-6]	< 100 nM	> 20000 nM
COc1cc(OCC(O)CN)cc(-c2cc(N(C3CCOCC3)C3CC3)n3ncc(C(C)C)c3n2)c1 (stereo not shown) [Example 13-8]	100 to 1000 nM	> 20000 nM
CC(C)n1ncc2c(N3CCOCC3)cc(-c3cccc(CCC(O)CN)c3)nc21 (stereo not shown) [Example 13-9]	100 to 1000 nM	> 20000 nM
CNCC(O)COc1cc(OC)cc(-c2cc(NC3CCOCC3)c3cnn(C(C)C)c3n2)c1 (stereo not shown) [Example 14-4]	< 100 nM	> 20000 nM
Cn1ccc(CNc2nc(-c3cccc(OCC(O)CN)c3)nc3c2cnn3C2CC2)n1 (stereo not shown) [Example 14-5]	100 to 1000 nM	> 20000 nM
CCN(c1cc(-c2cc(OC)cc(OCC(O)CN)c2)nc2c(C(C)C)cnn12)C1CCOCC1 (stereo not shown) [Example 14-8]	< 100 nM	> 20000 nM
CNCC(O)COc1cccc(-c2nc(NCc3cccc4ccnn34)c3cnn(C4CC4)c3n2)c1 (stereo not shown) [Example 14-9]	100 to 1000 nM	> 20000 nM
Cc1cc(CNc2nc(-c3cccc(OCC(O)CN)c3)nc3c2cnn3C2CC2)no1 (stereo not shown) [Example 15-5]	100 to 1000 nM	> 20000 nM
C#Cc1cc(OCC(O)CNC)cc(-c2cc(N3CCOCC3)n3ncc(C(C)C)c3n2)c1 (stereo not shown) [Example 15-6]	< 100 nM	> 20000 nM
CC(C)(C)c1cnn2c(NC3CCOCC3)cc(-c3cc(Cl)cc(OCC(O)CN)c3)nc12 (stereo not shown) [Example 15-8]	100 to 1000 nM	> 20000 nM
CNCC(O)COc1cc(-c2cc(NC3CCOCC3)c3cnn(C(C)C)c3n2)cc(C2CC2)c1 (stereo not shown) [Example 16-4]	< 100 nM	> 20000 nM
NCC(O)COc1cccc(-c2nc(N3CC4CCC(C3)O4)c3cnn(C4CC4)c3n2)c1 (stereo not shown) [Example 16-5]	< 100 nM	> 20000 nM
CNCC(O)COc1cc(OC)cc(-c2cc(N3[C@@H]4CC[C@@H]3COC4)c3cnn(C(C)C)c3n2)c1 (stereo partly shown) [Example 17-4]	< 100 nM	10000 to 20000 nM
NCC(O)COc1cccc(-c2nc(N3C4CCC3COC4)c3cnn(C4CC4)c3n2)c1 (stereo not shown) [Example 17-5]	< 100 nM	> 20000 nM
C=Cc1cc(OCC(O)CNC)cc(-c2cc(N3CCOCC3)n3ncc(C(C)C)c3n2)c1 (stereo not shown) [Example 17-6]	100 to 1000 nM	> 20000 nM
CNCC(O)COc1cc(OC)cc(-c2cc(N3CCOCC3)n3ncc(C(=O)OC)c3n2)c1 (stereo not shown) [Example 17-8]	< 100 nM	10000 to 20000 nM
CNCC(O)COc1cccc(-c2nc(NCc3cccnc3)c3cnn(C4CC4)c3n2)c1 (stereo not shown) [Example 17-9]	100 to 1000 nM	> 20000 nM
NCC(O)COc1cccc(-c2nc(NCc3nccs3)c3cnn(C4CC4)c3n2)c1 (stereo not shown) [Example 18-5]	< 100 nM	> 20000 nM
CNCC(O)COc1cc(NC)cc(-c2cc(N(C)C3CCOCC3)c3cnn(C(C)C)c3n2)c1 (stereo not shown) [Example 19-4]	< 100 nM	5000 to 10000 nM
CNCC(O)COc1cccc(-c2nc(NC3CCOCC3)c3cnn(C4CC4)c3n2)c1 (stereo not shown) [Example 19-5]	100 to 1000 nM	> 20000 nM
CNCC(O)COc1cccc(-c2cc(NC3CCOCC3)n3ncc(C(C)(C)C)c3n2)c1 (stereo not shown) [Example 19-6]	< 100 nM	> 20000 nM
